Test results: the supplement of paper PMC10307832

Tests used:
Test in all cases: relative viability (nuclei count vs DMSO), 5 days (fraction); higher = more cells survive
[1] = compound: Cn1cncc1[C@@](N)(c1ccc(Cl)cc1)c1ccc2c(c1)c(-c1cccc(Cl)c1)cc(=O)n2C [Tipifarnib] + CS(=O)(=O)CCNCc1ccc(-c2ccc3ncnc(Nc4ccc(OCc5cccc(F)c5)c(Cl)c4)c3c2)o1 [Lapatinib] (partner 2 µM)
Procedure, shortened: (§1)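 Cells from lung cancer lines were seeded into 1536-well plates and, one day later, dosed by pin tool. Treatments were either a single drug or a fixed dose of an anchor drug with five library-drug doses (not always all listed) in √10 steps. After 5 days, nuclei were stained in a one-step fixation (final 0.05% Triton X-100, 1% formaldehyde, 1 ug/ml Hoechst) and counted on 4× images, and relative viability is the treated-to-vehicle nuclei ratio, as the median of duplicate plates.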

[2] = compound: Cn1cncc1[C@@](N)(c1ccc(Cl)cc1)c1ccc2c(c1)c(-c1cccc(Cl)c1)cc(=O)n2C [Tipifarnib] + C[C@@H](Oc1cc(-c2cnn(C3CCNCC3)c2)cnc1N)c1c(Cl)ccc(F)c1Cl [Crizotinib] (partner 1 µM)
Procedure, shortened: as §1

[3] = compound: Cn1cncc1[C@@](N)(c1ccc(Cl)cc1)c1ccc2c(c1)c(-c1cccc(Cl)c1)cc(=O)n2C [Tipifarnib] + Cc1nc(Nc2ncc(C(=O)Nc3c(C)cccc3Cl)s2)cc(N2CCN(CCO)CC2)n1 [Dasatinib] (partner 0.075 µM)
Procedure, shortened: as §1

[4] = compound: Cn1cncc1[C@@](N)(c1ccc(Cl)cc1)c1ccc2c(c1)c(-c1cccc(Cl)c1)cc(=O)n2C [Tipifarnib] + Nc1nc2[nH]cc(CCc3ccc(C(=O)N[C@@H](CCC(=O)O)C(=O)O)cc3)c2c(=O)[nH]1 [Pemetrexed] (partner 0.2 µM)
Procedure, shortened: as §1

Cell Line	relative viability ([1]; first compound 0.01 µM)	relative viability ([1]; first compound 0.03162 µM)	relative viability ([1]; first compound 0.1 µM)	relative viability ([1]; first compound 0.3162 µM)	relative viability ([1]; first compound 1 µM)	relative viability ([2]; first compound 0.01 µM)	relative viability ([2]; first compound 0.03162 µM)	relative viability ([2]; first compound 0.1 µM)	relative viability ([2]; first compound 0.3162 µM)	relative viability ([2]; first compound 1 µM)	relative viability ([3]; first compound 0.01 µM)	relative viability ([3]; first compound 0.03162 µM)	relative viability ([3]; first compound 0.1 µM)	relative viability ([3]; first compound 0.3162 µM)	relative viability ([3]; first compound 1 µM)	relative viability ([4]; first compound 0.01 µM)	relative viability ([4]; first compound 0.03162 µM)	relative viability ([4]; first compound 0.1 µM)	relative viability ([4]; first compound 0.3162 µM)	relative viability ([4]; first compound 1 µM)
LCLC-97TM1	0.998	1.02	0.554	0.504	0.237	0.329	0.295	0.244	0.227	0.15	0.833	0.704	0.745	0.64	0.383	0.169	0.208	0.192	0.16	0.144
HARA	0.737	0.682	0.735	0.664	0.332	1.07	0.917	1	1.01	1.02	0.255	0.366	0.296	0.299	0.168	0.23	0.32	0.293	0.297	0.249
HCC-78	0.661	0.633	0.514	0.54	0.37	0.321	0.357	0.303	0.29	0.266	0.327	0.428	0.273	0.371	0.266	0.934	0.941	0.91	0.906	0.933
NCI-H1666	0.666	0.61	0.591	0.474	0.388	0.958	0.816	0.761	0.626	0.843	0.791	0.779	0.785	0.748	0.605	0.908	0.889	0.766	0.844	0.842
NCI-H2347	0.827	0.727	0.642	0.582	0.642	0.53	0.546	0.57	0.476	0.486	0.278	0.293	0.256	0.303	0.277	0.455	0.446	0.446	0.406	0.398
NCI-H838	0.965	0.952	0.644	0.615	0.393	0.694	0.538	0.434	0.434	0.433	0.322	0.296	0.233	0.263	0.237	0.259	0.264	0.293	0.269	0.269
NCI-H2023	1.01	0.544	0.348	0.357	0.105	0.491	0.495	0.302	0.27	0.333	0.561	0.427	0.325	0.299	0.217	0.242	0.289	0.19	0.212	0.198
201T	0.988	1.05	0.965	0.947	0.866	1.05	0.909	0.987	0.954	0.885	0.572	0.619	0.582	0.58	0.498	0.363	0.338	0.371	0.317	0.346
NCI-H1915	0.927	0.67	0.56	0.416	0.282	0.7	0.684	0.431	0.405	0.425	0.241	0.182	0.201	0.175	0.16	0.549	0.449	0.449	0.353	0.298
NCI-H2009	0.99	0.707	0.708	0.602	0.326	0.994	1.01	0.789	0.563	0.578	0.31	0.232	0.217	0.211	0.21	0.979	0.999	0.7	0.658	0.694
BEN	0.743	0.842	0.629	0.578	0.568	0.928	0.939	0.731	0.684	0.636	0.313	0.294	0.321	0.255	0.254	0.802	0.81	0.776	0.737	0.598
PC-14	0.346	0.327	0.242	0.226	0.15	0.928	0.834	0.748	0.469	0.43	0.261	0.206	0.191	0.128	0.093	0.123	0.154	0.157	0.146	0.149
SK-MES-1	0.466	0.455	0.481	0.411	0.386	0.974	0.864	0.95	0.69	0.656	0.44	0.341	0.337	0.18	0.249	0.975	0.919	0.924	0.773	0.648
NCI-H727	1.01	0.843	0.755	0.578	0.607	0.958	0.838	0.746	0.695	0.675	0.443	0.422	0.421	0.503	0.62	–	–	–	–	–
NCI-H1355	0.999	0.871	0.746	0.67	0.516	1.19	1.05	0.764	0.64	0.673	0.684	0.687	0.524	0.496	0.443	1.04	0.966	0.81	0.776	0.745
NCI-H1975	1.01	0.933	0.933	0.631	0.65	0.93	0.989	0.717	0.566	0.49	0.383	0.356	0.412	0.238	0.185	0.258	0.285	0.3	0.241	0.251
LK-2	0.824	0.801	0.8	0.678	0.629	0.231	0.217	0.238	0.209	0.222	0.276	0.261	0.27	0.299	0.191	0.31	0.313	0.279	0.232	0.122
NCI-H661	0.636	0.56	0.375	0.424	0.397	1.02	0.935	0.785	0.837	0.786	1.11	0.949	0.914	0.601	0.619	0.881	0.849	0.786	0.809	0.755
HCC-366	0.981	0.822	0.345	0.235	0.039	0.695	0.389	0.151	0.17	0.034	0.78	0.65	0.353	0.331	0.046	0.145	0.143	0.167	0.127	0.0507

Cell Line	relative viability ([1]; first compound 0.01 µM)	relative viability ([1]; first compound 0.03162 µM)	relative viability ([1]; first compound 0.1 µM)	relative viability ([1]; first compound 0.3162 µM)	relative viability ([1]; first compound 1 µM)	relative viability ([2]; first compound 0.01 µM)	relative viability ([2]; first compound 0.03162 µM)	relative viability ([2]; first compound 0.1 µM)	relative viability ([2]; first compound 0.3162 µM)	relative viability ([2]; first compound 1 µM)	relative viability ([3]; first compound 0.01 µM)	relative viability ([3]; first compound 0.03162 µM)	relative viability ([3]; first compound 0.1 µM)	relative viability ([3]; first compound 0.3162 µM)	relative viability ([3]; first compound 1 µM)	relative viability ([4]; first compound 0.01 µM)	relative viability ([4]; first compound 0.03162 µM)	relative viability ([4]; first compound 0.1 µM)	relative viability ([4]; first compound 0.3162 µM)	relative viability ([4]; first compound 1 µM)
HOP-62	0.841	0.301	0.454	0.244	0.265	0.726	0.528	0.303	0.35	0.448	0.683	0.392	0.37	0.277	0.338	0.233	0.297	0.276	0.208	0.222
NCI-H1944	0.854	0.622	0.599	0.444	0.342	1.12	0.92	0.624	0.568	0.609	0.213	0.173	0.161	0.17	0.169	0.531	0.581	0.48	0.438	0.409
SW 1573	1.08	1.13	0.669	0.648	0.243	0.767	0.701	0.462	0.317	0.316	0.379	0.33	0.297	0.217	0.198	0.781	0.719	0.458	0.383	0.245
LU99A	0.663	0.583	0.461	0.448	0.275	0.5	0.407	0.353	0.337	0.34	0.68	0.524	0.432	0.205	0.306	0.201	0.202	0.2	0.217	0.196
NCI-H441	–	–	–	–	–	0.723	0.465	0.492	0.346	0.277	0.592	0.516	0.484	0.396	0.277	0.269	0.286	0.294	0.307	0.254
EBC-1	0.199	0.214	0.2	0.188	0.215	0.195	0.198	0.215	0.206	0.172	–	–	–	–	–	–	–	–	–	–
HCC-44	0.876	0.898	0.853	0.767	0.494	0.749	0.698	0.599	0.576	0.568	–	–	–	–	–	0.619	0.615	0.625	0.589	0.604
NCI-H1648	–	–	–	–	–	–	–	–	–	–	–	–	–	–	–	0.6	0.746	0.842	0.636	0.305
SW 900	–	–	–	–	–	–	–	–	–	–	0.476	0.289	0.269	0.158	0.289	0.397	0.272	0.455	0.303	0.299
ABC-1	1.37	1.39	1.58	1.39	1.59	1.05	–	0.609	0.676	0.452	0.608	–	0.567	0.483	0.473	–	–	–	–	–
NCI-H1793	0.882	0.691	0.742	0.381	0.52	–	–	–	–	–	0.455	0.43	0.34	0.246	0.243	0.89	0.748	0.703	0.522	0.389
NCI-H1395	1.03	0.85	0.82	0.68	0.48	–	–	–	–	–	0.421	0.348	0.342	0.34	0.381	0.826	0.76	0.746	0.651	0.508
NCI-H1299	0.998	0.9	0.915	0.845	0.836	0.903	0.841	0.795	0.832	0.81	–	–	–	–	–	–	–	–	–	–
ChaGo-K-1	–	–	–	–	–	1.12	1.23	0.762	0.992	0.484	0.622	0.56	0.589	0.525	0.324	0.262	0.274	0.265	0.27	0.272
NCI-H522	–	–	–	–	–	–	–	–	–	–	0.95	0.912	0.861	0.82	0.788	1.08	1.2	0.886	0.973	0.839
A549	1.09	0.793	0.643	0.439	0.302	0.499	0.313	0.238	0.155	0.121	–	–	–	–	–	–	–	–	–	–
IA-LM	0.295	0.192	0.215	0.144	0.156	0.533	0.548	0.291	0.272	0.263	–	–	–	–	–	–	–	–	–	–
LCLC-103H	–	–	–	–	–	1.01	1.01	0.893	0.87	0.85	0.47	0.441	0.426	0.345	0.328	0.517	0.45	0.49	0.49	0.507
Calu-6	1.02	0.801	0.771	0.599	0.535	0.694	0.566	0.452	0.434	0.344	–	–	–	–	–	–	–	–	–	–
